# Results published in patent US8835124B2, “Method for treating cancer with agents that bind phosphorylated CDC27” (The Nemours Foundation, priority 2011, dated 2014).
# Key:
# medulloblastoma = medulloblastoma in vivo model; cited from earlier work
# [1] = system: Cdc27, cyclin B1, securin, cyclin D1, APC2, p55Cdc20; test: Immunoblotting of DAOY cells released from mitotic block; type: cell-based, human
# Method: (§1) Cell lysates were prepared in a buffer containing 20 mM Tris (pH 7.5), 150 mM NaCl, 1 mM EDTA, 1 mM EGTA, 0.1% Triton X-100, 2.5 mM sodium pyrophosphate, 1 mM β-glycerol phosphate, 1 mM sodium vanadate, 1 mM phenylmethylsulfonyl fluoride and 5 μg/ml of antipapain, leupeptin and pepstatin (protease inhibitor cocktail). Protein concentrations were determined by the Dc protein assay (Bio-Rad, Hercules, Calif.). Equal amounts of protein were resolved by SDS-PAGE and transferred to nitrocellulose. The membranes were blocked in 5% non-fat milk in Tris-buffered saline with 0.1% […] (TBST). Primary antibodies diluted in 5% bovine serum albumin/TBST were incubated overnight at 4° C. and HRP-conjugated secondary antibodies in 5% non-fat milk/TBST for 2 hours at room temperature. Protein bands were visualized by Enhanced Chemiluminescence Plus (GE Healthcare, Piscataway, N.J.).
# medulloblastoma cells = conditions: cited from earlier work
# [2] = system: DAOY medulloblastoma cells; test: Cell cycle analysis by flow cytometry after release from G1/S block; type: cell-based, human; conditions: for G0/G1 / G2/M / S: DAOY released from G1/S block
# Method: (§2) DNA was stained with 100 μg/ml propidium iodide (PI) in hypotonic citrate buffer with 20 μg/ml ribonuclease A. Stained nuclei were analyzed for DNA-PI fluorescence using an Accuri C6 flow cytometer (Accuri Cytometers Inc., Ann Arbor, Mich.). Resulting DNA distributions for sub G0/G1, G0/G1, S and G2/M phase of the cell cycle were analyzed with CFlow plus software (Accuri Cytometers Inc).
# (§3) For analysis of cell cycle profiles after mitotic block, cells were synchronized with 2 mM thymidine for 24 hours. The block was released for 3 hours and cells were arrested in prometaphase with 100 nM nocodazole for 12 hours. For G1/S arrest, cells were synchronized for 18 hours with 2 mM thymidine, released for 9 hours, followed by a second thymidine arrest for 18 hours. The block was then released in the presence of DMSO or curcumin as indicated and the cells were processed as described above.
# as §2, with “software (Accuri Cytometers. Inc).” for “software (Accuri Cytometers Inc).”
# as §3, with “above. […] The data from these cell cycle studies are the mean±SEM of three independent experiments.” for “above.”
# At 0, 4, 8, 12, 16 and 20 hours, cell cycle progression was analyzed by flow cytometry.
# [3] = system: APC2, p55Cdc20, cyclins A and E, APC7, APC8; test: Immunoblotting of APC/C subunits and other cell cycle related proteins in DAOY cells; type: cell-based, human; conditions: control vs curcumin-treated DAOY cells, immunoblot
# Method: as §1
# Cell lysates were prepared in a buffer containing 20 mM Iris (pH 7.5), 150 mM NaCl, 1 mM EDTA, 1 mM EGTA, 0.1% Triton X-100, 2.5 mM sodium pyrophosphate, 1 mM β-glycerol phosphate, 1 mM sodium vanadate, 1 mM phenylmethylsulfonyl fluoride and 5 μg/ml of antipapain, leupeptin and pepstatin (protease inhibitor cocktail). Protein concentrations were determined by the Dc protein assay (Bio-Rad, Hercules, Calif.). Equal amounts of protein were resolved by SDS-PAGE and transferred to nitrocellulose. […]
smiles,measurement,setting,value
"COc1cc(/C=C/C(=O)CC(=O)/C=C/c2ccc(O)c(OC)c2)ccc1O [Curcumin, (E,E)-1,7-bis(4-hydroxy-3-methoxyphenyl)-1,6-heptadiene-3,5-dion]",medulloblastoma growth,medulloblastoma,can inhibit medulloblastoma growth
same,dephosphorylation of Cdc27 over time after release of the mitotic block,[1]; 20 and 40 μM curcumin vs DMSO,not observed
same,decreases in the cyclin B1 and securin levels after release of the mitotic block,[1]; 20 and 40 μM curcumin vs control,not found
same,"levels of APC2, p55Cdc20 or cyclin D1",[1]; control vs curcumin-treated cells,no significant differences
same,cell cycle arrest and apoptosis,medulloblastoma cells,induces G2/M arrest and apoptosis
same,cells that had not re-entered G0/G1,"[2]; 20 μM curcumin, 20 hours after removal of the thymidine block",56.9%
same,time after release at which cells reached G2/M,[2]; DAOY released from G1/S block in the presence of 10 μM curcumin (control 8-12 hours),12 to 16 h
same,time after release at which cells reached G2/M,[2]; DAOY released from G1/S block in the presence of 20 μM curcumin (control 8-12 hours),16 to 20 h
same,sub-G0/G1 signal (apoptosis),"[2]; DAOY released from G1/S block with curcumin, up to 20 hours","no sub-G0/G1 signal, was detected"
same,G0/G1,"[2]; 10 μM Curcumin, 0 Hr",48.15 ± 0.32%
same,G2/M,"[2]; 10 μM Curcumin, 0 Hr",32.96 ± 1.97%
same,S,"[2]; 10 μM Curcumin, 0 Hr",18.89 ± 2.17%
same,G0/G1,"[2]; 10 μM Curcumin, 4 Hr",41.92 ± 5.16%
same,G2/M,"[2]; 10 μM Curcumin, 4 Hr",25.88 ± 3.55%
same,S,"[2]; 10 μM Curcumin, 4 Hr",32.13 ± 2.64%
same,G0/G1,"[2]; 10 μM Curcumin, 8 Hr",24.94 ± 4.83%
same,G2/M,"[2]; 10 μM Curcumin, 8 Hr",35.33 ± 5.04%
same,S,"[2]; 10 μM Curcumin, 8 Hr",39.71 ± 4.45%
same,G0/G1,"[2]; 10 μM Curcumin, 12 Hr",32.40 ± 8.28%
same,G2/M,"[2]; 10 μM Curcumin, 12 Hr",44.92 ± 11.40%
same,S,"[2]; 10 μM Curcumin, 12 Hr",22.71 ± 3.49%
same,G0/G1,"[2]; 10 μM Curcumin, 16 Hr",42.40 ± 6.35%
same,G2/M,"[2]; 10 μM Curcumin, 16 Hr",34.85 ± 9.11%
same,S,"[2]; 10 μM Curcumin, 16 Hr",22.75 ± 3.63%
same,G0/G1,"[2]; 10 μM Curcumin, 20 Hr",46.46 ± 2.96%
same,G2/M,"[2]; 10 μM Curcumin, 20 Hr",29.88 ± 3.86%
same,S,"[2]; 10 μM Curcumin, 20 Hr",23.66 ± 4.26%
same,G0/G1,"[2]; 20 μM Curcumin, 0 Hr",48.15 ± 0.32%
same,G2/M,"[2]; 20 μM Curcumin, 0 Hr",32.96 ± 1.97%
same,S,"[2]; 20 μM Curcumin, 0 Hr",18.89 ± 2.17%
same,G0/G1,"[2]; 20 μM Curcumin, 4 Hr",40.18 ± 5.31%
same,G2/M,"[2]; 20 μM Curcumin, 4 Hr",28.33 ± 1.56%
same,S,"[2]; 20 μM Curcumin, 4 Hr",31.55 ± 3.94%
same,G0/G1,"[2]; 20 μM Curcumin, 8 Hr",31.66 ± 3.64%
same,G2/M,"[2]; 20 μM Curcumin, 8 Hr",31.58 ± 2.35%
same,S,"[2]; 20 μM Curcumin, 8 Hr",36.76 ± 2.49%
same,G0/G1,"[2]; 20 μM Curcumin, 12 Hr",21.69 ± 2.77%
same,G2/M,"[2]; 20 μM Curcumin, 12 Hr",40.44 ± 3.95%
same,S,"[2]; 20 μM Curcumin, 12 Hr",37.87 ± 3.29%
same,G0/G1,"[2]; 20 μM Curcumin, 16 Hr",20.99 ± 2.17%
same,G2/M,"[2]; 20 μM Curcumin, 16 Hr",48.68 ± 5.04%
same,S,"[2]; 20 μM Curcumin, 16 Hr",30.34 ± 4.57%
same,G0/G1,"[2]; 20 μM Curcumin, 20 Hr",27.44 ± 4.69%
same,G2/M,"[2]; 20 μM Curcumin, 20 Hr",43.06 ± 5.04%
same,S,"[2]; 20 μM Curcumin, 20 Hr",29.53 ± 0.59%
same,expression of cyclin A and E,[3],No noticeable changes
same,levels of APC2 and p55Cdc20,[3],comparable in control and curcumin-treated cells
